The text below walks through data of ChEMBL document CHEMBL5380809, “Discovery of Novel N-Hydroxy-1,2,4-oxadiazole-5-formamides as ASM Direct Inhibitors for the Treatment of Atherosclerosis” (J Med Chem, 2023).

Calls of active or inactive are those of the source. The calls are words filed in the database; no cut-off is given here. Where only a bound is given, the exact number is not on record here.

Data set [1] has as its target T1, Sphingomyelin phosphodiesterase (Homo sapiens, UniProt P17405).
T1 sequence (P17405 whole entry): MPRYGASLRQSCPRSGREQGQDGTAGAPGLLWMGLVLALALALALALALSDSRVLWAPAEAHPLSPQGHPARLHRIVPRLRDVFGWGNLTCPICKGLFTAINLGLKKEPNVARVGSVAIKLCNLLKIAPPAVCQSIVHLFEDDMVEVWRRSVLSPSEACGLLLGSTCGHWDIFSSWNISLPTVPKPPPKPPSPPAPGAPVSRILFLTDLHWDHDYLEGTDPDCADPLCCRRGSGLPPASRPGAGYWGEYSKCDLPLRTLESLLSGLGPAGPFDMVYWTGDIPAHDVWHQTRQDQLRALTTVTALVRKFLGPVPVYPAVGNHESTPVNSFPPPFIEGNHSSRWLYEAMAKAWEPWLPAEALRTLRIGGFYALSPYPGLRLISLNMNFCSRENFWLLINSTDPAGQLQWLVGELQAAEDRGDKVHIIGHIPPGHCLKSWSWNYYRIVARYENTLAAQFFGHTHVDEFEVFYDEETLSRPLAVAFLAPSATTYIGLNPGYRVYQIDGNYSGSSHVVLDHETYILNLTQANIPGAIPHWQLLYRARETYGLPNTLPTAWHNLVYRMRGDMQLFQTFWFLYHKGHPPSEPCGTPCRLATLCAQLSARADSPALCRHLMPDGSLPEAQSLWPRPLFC
Description: Inhibition of recombinant human aSMase (62 to 628 residues) using HMU-PC as substrate incubated for 2 hrs by fluorescence based assay.

Data set [2] deals with T2, Sphingomyelin phosphodiesterase (Homo sapiens) (UniProt P17405).
T2 sequence (whole entry): T1 sequence (P17405 whole entry)
The data set is described as follows: Inhibition of recombinant human aSMase (62 to 628 residues) using HMU-PC as substrate at 50 uM incubated for 2 hrs by fluorescence based assay relative to control.

The subject of data set [3] is Mus musculus. The data set is described as follows: Antiatherosclerotic activity in high-fat diet fed ApoE-/- mouse assessed as reduction in plasma total cholesterol level at 20 mg/kg measured after 8 weeks. It counts as functional, organism-based.
Data set [4] has as its system Mus musculus. The data set is described as follows: Antiatherosclerotic activity in high-fat diet fed ApoE-/- mouse assessed as reduction in plasma LDL-C level at 20 mg/kg measured after 8 weeks. The data set is classed as functional, organism-based.
For data set [5], the system named is Mus musculus. Description: Antiatherosclerotic activity in high-fat diet fed ApoE-/- mouse assessed as reduction in plasma total triacylglycerol level at 20 mg/kg measured after 8 weeks. It counts as functional, organism-based.
Data set [6] relates to Mus musculus. The data set is described as follows: Antiatherosclerotic activity in high-fat diet fed ApoE-/- mouse assessed as reduction in plasma Ox-LDL-C level at 20 mg/kg measured after 8 weeks. It counts as functional, organism-based.
Data set [7] concerns Mus musculus. The data set is described as follows: Antiatherosclerotic activity in high-fat diet fed ApoE-/- mouse assessed as reduction in aortic arch lipid accumulation at 20 mg/kg measured after 8 weeks. It counts as functional, organism-based.
Data set [8] deals with T2, Sphingomyelin phosphodiesterase (Homo sapiens). The data set is described as follows: Inhibition of recombinant human aSMase (62 to 628 residues) using HMU-PC as substrate at 50 uM incubated for 2 hrs by fluorescence based assay.
For data set [9] the target is unchanged. Description: Inhibition of recombinant human aSMase (62 to 628 residues) using HMU-PC as substrate at 25 uM incubated for 2 hrs by fluorescence based assay relative to control.
The nature of data set [10]: Cytotoxicity against HUVEC cells assessed as cell growth inhibition incubated for 24 hrs by MTT assay. It counts as toxicity, cell-based. As to conditions: human.
Data set [11] in a line: Cytotoxicity against HUVEC cells assessed as cell growth inhibition incubated for 48 hrs by MTT assay. The data set is classed as toxicity, cell-based. As to conditions: human. In general terms: Tetrazolium dyes change colour on reduction, which living cells bring about.
The next data set relates to HUVEC. Description: Cytotoxicity against HUVEC cells assessed as cell growth inhibition at 0.5 to 20 uM incubated for 24 to 48 hrs by MTT assay. It counts as toxicity, cell-based. The settings on record: human, dose lower 0.5 µM, time lower 24 hrs, dose upper 20 µM, time upper 48 hrs.
A short description of data set [12]: Inhibition of rat brain aSMase using HMU-PC as substrate incubated for 3 hrs by fluorescence based assay. The data set is classed as tissue-based.

For orientation: IC50 means the concentration that inhibits the measured activity by half. As for `CCCCOc1ccc(-c2cc(C(=O)NO)no2)cc1`, the IC50 in [1] worked out at 1 µM.

Turning to `CC(C)COc1ccc(-c2cc(C(=O)NO)no2)cc1`, the IC50 in data set [1] came to 6.73 µM.

`O=C(NO)c1cc(-c2ccc(OCc3ccccc3)cc2)on1`: the IC50 in data set [1] is 7.9 µM.

For `O=C(NO)c1nnc(-c2ccc(-c3ccc(Cl)cc3)cc2)o1`, the IC50 in [1] amounted to 0.51 µM.

Broadly, the inhibition is the relative decrease from the control value, in per cent. On to `O=C(NO)c1cc(-c2ccc(-c3ccc(Cl)cc3)cc2)on1`, for which the IC50 in data set [1] was > 50 µM. In [2], the inhibition is < 50%.

Turning to `CCC(C)(C)C(=O)O[C@H]1C[C@@H](C)C=C2C=C[C@H](C)[C@H](CC[C@@H]3C[C@@H](O)CC(=O)O3)[C@H]21`, the outcome in the data set on Mus musculus [3], with Mus musculus [4], in the data set on Mus musculus [5] and with Mus musculus [7] was Active. For the same molecule, the outcome in the data set with Mus musculus [6] was inactive.

`O=C(Cc1nc(-c2ccc(COc3ccccc3)cc2)no1)NO`: the inhibition entry in [8] was “inactive”.

With `O=C(Cc1noc(-c2ccc(Br)cc2)n1)NO`, the half-maximal inhibitory concentration (IC50) in [1] is > 50 µM. The inhibition in [2] was < 50%.

As for `O=C(CCCOc1ccc(-c2ccc(Cl)cc2)cc1)NO`, the inhibition entry in data set [8] is “inactive”.

Consider `O=C(NO)c1nnc(-c2ccc(OCc3ccccc3)cc2)o1`, for which, in data set [9], the inhibition is 3%.

As for `O=C(NO)c1nc(-c2ccc(COc3ccc(C(F)(F)F)cc3)cc2)no1`, the 50% inhibitory concentration (IC50) in [1] is 8.1 µM. For the same molecule, the IC50 at 24 h in data set [10] amounted to 79.1 µM. Also, the IC50 at 48 h in data set [11] stood at 84.3 µM.

For the molecule `O=C(Cc1noc(-c2ccc(-c3ccc(Cl)cc3)cc2)n1)NO`, the IC50 in data set [1] is > 50 µM. The inhibition in data set [2] was < 50%.

For `O=C(CCCOc1ccc(-c2cccnc2)cc1)NO`, the inhibition entry in data set [8] is “inactive”.

Turning to `O=C(Cc1noc(COc2ccc(-c3ccc(Cl)cc3)cc2)n1)NO`, the IC50 in [1] was 18.7 µM.

As to `O=C(NO)c1noc(-c2ccc(Br)cc2)n1`, in data set [1], the IC50 came out at 37.3 µM.

As to `CC(C)COc1ccc(-c2nnc(C(=O)NO)o2)cc1`, the IC50 in data set [1] worked out at 0.81 µM. In the data set with HUVEC, the Activity entry is “Non-Toxic”.

As for `O=C(NO)c1nc(-c2ccc(COc3ccc(Cl)cc3)cc2)no1`, in data set [1], the IC50 amounted to 4.2 µM.

For `O=C(NO)c1nc(COc2ccc(-c3ccc(Cl)cc3)cc2)no1`, the concentration for half-maximal inhibition (IC50) in data set [1] was determined as 0.47 µM.

Turning to `O=C(NO)c1nc(-c2ccc(COc3ccccc3)cc2)no1`, in data set [1], the IC50 turned out to be 3.3 µM.

For `COc1c(O)cc2oc3cc(O)c(CC=C(C)C)c(O)c3c(=O)c2c1CC=C(C)C` [MANGOSTIN], in [12], the IC50 was determined as 14.1 µM.

Consider `O=C(Cc1nc(-c2ccc(COc3ccc(Br)cc3)cc2)no1)NO`, for which the inhibition entry in data set [8] was “inactive”.

For `CCCCOc1ccc(-c2nnc(C(=O)NO)o2)cc1OC`, the inhibition in data set [9] is 57%.

Regarding `O=C(NO)c1nc(-c2ccc(COc3cccc(Cl)c3)cc2)no1`, the IC50 in data set [1] came out at 8.4 µM.

As for `O=C(NO)c1nc(-c2ccc(COc3ccccc3Cl)cc2)no1`, the inhibition result in data set [8] is “inactive”.

For the molecule `O=C(Cc1noc(COc2ccc(-c3ccccc3)cc2)n1)NO`, the IC50 in data set [1] was > 50 µM. In addition, the inhibition in data set [2] is < 50%.

`O=C(NO)c1noc(COc2ccc(-c3ccccc3)cc2)n1`: the IC50 in data set [1] stood at 4.91 µM.

With `O=C(NO)c1nc(COc2ccc(-c3ccccc3)cc2)no1`, in [1], the IC50 came to 0.83 µM.

With `COc1cc(-c2nnc(C(=O)NO)o2)ccc1OCC(C)C`, the inhibition in data set [9] turned out to be 55%.

As for `COc1cc(-c2nnc(C(=O)NO)o2)ccc1OCc1ccccc1`, in [9], the inhibition worked out at 60%.

Take `O=C(NO)c1nc(-c2ccc(CNc3ccc(Cl)cc3)cc2)no1`: the inhibition result in [8] was “inactive”.

As for `CCCCOc1ccc(-c2nnc(C(=O)NO)o2)cc1`, the inhibition in [9] was found to be 13%. For the same molecule, the inhibition entry in [8] was “inactive”.

Take `O=C(NO)c1nc(-c2ccc(CNc3ccc(C(F)(F)F)cc3)cc2)no1`: the inhibition result in data set [8] is “inactive”.
